US20260355188A1, “COMBINATION THERAPIES USING PRMT5 INHIBITORS AND BCL-2 FAMILY INHIBITORS FOR THE TREATMENT OF CANCER” (MIRATI THERAPEUTICS, INC., priority 2022, published 2026)

Legend:
LU99 xenograft tumors [1] = assay: In vivo combination study (LU99 model), Example 4; design: species or system female nu/nu mice; settings: MRTX1719 100 mg/kg PO QD, A-1331852 25 mg/kg PO BID, alone or combined
Source text: (§1) Immunodeficient female nu/nu mice were implanted with 5×10^6 LU99 cancer cells in 50% Matrigel. Tumor volume measurements were collected using calipers and determined utilizing the formula 0.5×L×W^2 in which L refers to length and W refers to width of each tumor. When tumors reached approximately 125-150 mm^3, animals were randomized to receive A) vehicle, B) a PRMT5 inhibitor, C) navitoclax (ABT-263), D) venetoclax (ABT-199), E) A-1331852, F) the PRMT5 inhibitor and navitoclax, F) the PRMT5 inhibitor and venetoclax, or G) the PRMT5 inhibitor and A-1331852 all administered orally (PO) with the indicated dose and schedule for 20-34 days. Tumor volume was measured twice a week (n=5/treatment group). Average tumor volume and standard error of the mean was calculated and plotted at each study day using GraphPad Prism.
Example 4 was carried out according to the in vivo study procedure described above in Example 1.
(§2) The PRMT5 inhibitor was MRTX1719 administered at 100 mg/kg once a day (QD). MRTX1719 is (2M)-2-(4-(4-(aminomethyl)-1-oxo-1,2-dihydrophthalazin-6-yl)-1-methyl-1H-pyrazol-5-yl)-4-chloro-6-cyclopropoxy-3-fluorobenzonitrile, disclosed as Example 16-8 at p. 307 of the international patent publication No. WO 2021/050915 A1, published 18 Mar. 2021, incorporated by reference in its entirety. The BCL-2 family inhibitor, A-1331852 was administered at 25 mg/kg twice a day (BID) and synthesized at Wuxi AppTec (Wuhan, China).

LU99 xenograft tumors [2] = assay: In vivo combination study (LU99 model), Example 1; design: species or system female nu/nu mice; settings: MRTX1719, ABT-263, ABT-199 each 100 mg/kg PO QD, alone or combined
Source text: as §1
as §2, with “entirety.” for “entirety. The BCL-2 family inhibitor, A-1331852 was administered at 25 mg/kg twice a day (BID) and synthesized at Wuxi AppTec (Wuhan, China).”
The BCL-2 family inhibitors used in this example, ABT-199 (venetoclax) and ABT-263 (navitoclax), were administered at 100 mg/kg once a day (QD) and supplied by Selleck Chemicals (Houston, TX).

Mero83 = assay: In vitro combination synergy, Mero83 (Cell-Titer Glo); type: cell-based; settings: combined with exemplary PRMT5 inhibitor, 120 h, sum of Loewe, Bliss, HSA and ZIP scores
Method: (§3) A panel of MTAP-deleted cancer cell lines was assembled to determine whether combining BCL-2 family inhibitors with exemplary PRMT5 inhibitors disclosed herein results in synergistic activity.
(§4) [Assays for determining the synergy score for the pairwise combinations for each cell line were performed in triplicate. 384 or 96-well plates plus additional wells of a separate 384 or 96-well control plate for determining baseline luminescence were seeded with cells of a particular MTAP-deleted cell line in a suitable growth medium for that cell line, e.g., RPMI 1640 medium supplemented with 10% FBS and any cell line specific reagents needed for growth. The plates were incubated overnight at 37 °C in a 5% CO2 atmosphere.
(§5) To each of the designated baseline wells, Cell-Titer Glo reagent (CTG; Promega Corporation) was added to each well and the plates were incubated for 20 min shaking at room temperature. Baseline luminescence was quantitated using a BMG ClarioStar multimode plate reader according to the manufacturer's instructions.
(§6) A series of 1000× drug dilutions in 100% DMSO was prepared that includes a 9-point single agent 3-fold dilution of the exemplary PRMT5 inhibitor (of the type described in WO2021/050915) with a top dose of 3000 nM (and a 6-point single agent 5-fold dilution of the BCL-2 family inhibitor with a top dose of 3000 nM as reference standards.
(§7) A 10× intermediate dosing plate was prepared in serum free medium that contains arrayed single agent dilutions of exemplary PRMT5 inhibitor (of the type described in WO2021/050915) and or the BCL-2 family inhibitor. In addition, a matrix of 54 dilution combinations of exemplary PRMT5 inhibitor (of the type described in WO2021/050915) and the BCL-2 family inhibitor was prepared as test samples.
(§8) To each corresponding well of the 384-well plates seeded with the appropriate cell line above, 10× single agent and the 54 combinations of the dose matrix was added and the plates were incubated for 120 hours at 37 °C in 5% CO2 atmosphere. Cell-Titer Glo reagent (CTG) was added to each test well, the plates were incubated for 20 min shaking at room temperature, and luminescence was quantitated using a BMG ClarioStar multimode plate reader according to the manufacturer's instructions. To normalize test samples, the determined baseline luminescence was subtracted from each test sample prior to analysis and mean values are calculated from replicate samples.
(§9) The output of the data from each mathematical model is the assignment of a relative synergy score. The data reported in Table 6 are the aggregate sum of the Loewe additivity, Bliss independence, Highest Single Agent and ZIP synergy scores (“Composite Synergy Score”).

H2052 = assay: In vitro combination synergy, H2052 (Cell-Titer Glo); type: cell-based; settings: combined with exemplary PRMT5 inhibitor, 120 h, sum of Loewe, Bliss, HSA and ZIP scores
Method: as §3, §4, §5, §6, §7, §8, §9

Mero14 = assay: In vitro combination synergy, Mero14 (Cell-Titer Glo); type: cell-based; settings: combined with exemplary PRMT5 inhibitor, 120 h, sum of Loewe, Bliss, HSA and ZIP scores
Method: as §3, §4, §5, §6, §7, §8, §9

H1650 = assay: In vitro combination synergy, H1650 (Cell-Titer Glo); type: cell-based; settings: combined with exemplary PRMT5 inhibitor, 120 h, sum of Loewe, Bliss, HSA and ZIP scores
Method: as §3, §4, §5, §6, §7, §8, §9

LU99 = assay: In vitro combination synergy, LU99 (Cell-Titer Glo); type: cell-based; settings: combined with exemplary PRMT5 inhibitor, 120 h, sum of Loewe, Bliss, HSA and ZIP scores
Method: as §3, §4, §5, §6, §7, §8, §9

H2452 = assay: In vitro combination synergy, H2452 (Cell-Titer Glo); type: cell-based; settings: combined with exemplary PRMT5 inhibitor, 120 h, sum of Loewe, Bliss, HSA and ZIP scores
Method: as §3, §4, §5, §6, §7, §8, §9

RT4 = assay: In vitro combination synergy, RT4 (Cell-Titer Glo); type: cell-based; settings: combined with exemplary PRMT5 inhibitor, 120 h, sum of Loewe, Bliss, HSA and ZIP scores
Method: as §3, §4, §5, §6, §7, §8, §9

H2228 = assay: In vitro combination synergy, H2228 (Cell-Titer Glo); type: cell-based; settings: combined with exemplary PRMT5 inhibitor, 120 h, sum of Loewe, Bliss, HSA and ZIP scores
Method: as §3, §4, §5, §6, §7, §8, §9

SU8686 = assay: In vitro combination synergy, SU8686 (Cell-Titer Glo); type: cell-based; settings: combined with exemplary PRMT5 inhibitor, 120 h, sum of Loewe, Bliss, HSA and ZIP scores
Method: as §3, §4, §5, §6, §7, §8, §9

SW1573 = assay: In vitro combination synergy, SW1573 (Cell-Titer Glo); type: cell-based; settings: combined with exemplary PRMT5 inhibitor, 120 h, sum of Loewe, Bliss, HSA and ZIP scores
Method: as §3, §4, §5, §6, §7, §8, §9

H1437 = assay: In vitro combination synergy, H1437 (Cell-Titer Glo); type: cell-based; settings: combined with exemplary PRMT5 inhibitor, 120 h, sum of Loewe, Bliss, HSA and ZIP scores
Method: as §3, §4, §5, §6, §7, §8, §9

HCC4006 = assay: In vitro combination synergy, HCC4006 (Cell-Titer Glo); type: cell-based; settings: combined with exemplary PRMT5 inhibitor, 120 h, sum of Loewe, Bliss, HSA and ZIP scores
Method: as §3, §4, §5, §6, §7, §8, §9

Q: How did the “Average Tumor Volume” value (LU99 xenograft tumors [1]; day 2) turn out when `Cn1ncc(-c2ccc3c(=O)[nH]nc(CN)c3c2)c1-c1c(F)c(Cl)cc(OC2CC2)c1C#N` (atropisomer, axis not shown; (M)) [MRTX1719, (2M)-2-(4-(4-(aminomethyl)-1-oxo-1,2-dihydrophthalazin-6-yl)-1-methyl-1H-pyrazol-5-yl)-4-chloro-6-cyclopropoxy-3-fluorobenzonitrile] was run?
A: 221 mm^3

Q: And the “Average Tumor Volume” value (LU99 xenograft tumors [1]; day 6)?
A: 229 mm^3

Q: What about the “Average Tumor Volume” value (LU99 xenograft tumors [1]; day 9) of the same molecule?
A: 232 mm^3

Q: What about the “Average Tumor Volume” value (LU99 xenograft tumors [1]; day 14) of the same molecule?
A: 268 mm^3

Q: What about the “Average Tumor Volume” value (LU99 xenograft tumors [1]; day 16) of the same molecule?
A: 296 mm^3

Q: And the “Average Tumor Volume” value (LU99 xenograft tumors [1]; day 20)?
A: 360 mm^3

Q: And the “Average Tumor Volume” value (LU99 xenograft tumors [1]; day −1)?
A: 137 mm^3

Q: And the “Average Tumor Volume” value (LU99 xenograft tumors [2]; day 3)?
A: 215 mm^3

Q: And the “Average Tumor Volume” value (LU99 xenograft tumors [2]; day 6)?
A: 236 mm^3

Q: And the “Average Tumor Volume” value (LU99 xenograft tumors [2]; day 10)?
A: 236 mm^3

Q: And the “Average Tumor Volume” value (LU99 xenograft tumors [2]; day 13)?
A: 260 mm^3

Q: What about the “Average Tumor Volume” value (LU99 xenograft tumors [2]; day 17) of the same molecule?
A: 282 mm^3

Q: What about the “Average Tumor Volume” value (LU99 xenograft tumors [2]; day 20) of the same molecule?
A: 302 mm^3

Q: What about the “Average Tumor Volume” value (LU99 xenograft tumors [2]; day −1) of the same molecule?
A: 153 mm^3

Q: How did the “Composite Synergy Score” value (Mero83) turn out when `Cc1c(-c2ccc(N3CCc4cccc(C(=O)Nc5nc6ccccc6s5)c4C3)nc2C(=O)O)cnn1CC12CC3CC(CC(C3)C1)C2` [A-1331852] was run?
A: 11

Q: And the “Composite Synergy Score” value (H2052)?
A: 12

Q: What about the “Composite Synergy Score” value (Mero14) of the same molecule?
A: 28

Q: What about the “Composite Synergy Score” value (H1650) of the same molecule?
A: 62

Q: And the “Composite Synergy Score” value (LU99)?
A: 64

Q: What about the “Composite Synergy Score” value (H2452) of the same molecule?
A: 42

Q: And the “Composite Synergy Score” value (RT4)?
A: 40

Q: And the “Average Tumor Volume” value (LU99 xenograft tumors [1]; day 2)?
A: 217 mm^3

Q: What about the “Average Tumor Volume” value (LU99 xenograft tumors [1]; day 6) of the same molecule?
A: 393 mm^3

Q: And the “Average Tumor Volume” value (LU99 xenograft tumors [1]; day 9)?
A: 547 mm^3

Q: And the “Average Tumor Volume” value (LU99 xenograft tumors [1]; day 14)?
A: 960 mm^3

Q: And the “Average Tumor Volume” value (LU99 xenograft tumors [1]; day 16)?
A: 1228 mm^3

Q: What about the “Average Tumor Volume” value (LU99 xenograft tumors [1]; day 20) of the same molecule?
A: 1331 mm^3

Q: What about the “Average Tumor Volume” value (LU99 xenograft tumors [1]; day −1) of the same molecule?
A: 137 mm^3

Q: What about the “Composite Synergy Score” value (H2228) of the same molecule?
A: 36

Q: What about the “Composite Synergy Score” value (SU8686) of the same molecule?
A: 50

Q: And the “Composite Synergy Score” value (SW1573)?
A: 50

Q: What about the “Composite Synergy Score” value (H1437) of the same molecule?
A: 36

Q: And the “Composite Synergy Score” value (HCC4006)?
A: 63

Q: How did the “Composite Synergy Score” value (Mero83) turn out when `CC1(C)CCC(c2ccc(Cl)cc2)=C(CN2CCN(c3ccc(C(=O)NS(=O)(=O)c4ccc(N[C@H](CCN5CCOCC5)CSc5ccccc5)c(S(=O)(=O)C(F)(F)F)c4)cc3)CC2)C1` [ABT-263, navitoclax] was run?
A: −26

Q: What about the “Composite Synergy Score” value (H2052) of the same molecule?
A: 11

Q: And the “Composite Synergy Score” value (Mero14)?
A: 18

Q: What about the “Composite Synergy Score” value (H1650) of the same molecule?
A: 32

Q: What about the “Composite Synergy Score” value (LU99) of the same molecule?
A: 41

Q: And the “Composite Synergy Score” value (H2452)?
A: −20

Q: And the “Composite Synergy Score” value (RT4)?
A: 24

Q: What about the “Composite Synergy Score” value (H2228) of the same molecule?
A: 24

Q: And the “Composite Synergy Score” value (SU8686)?
A: 12

Q: And the “Average Tumor Volume” value (LU99 xenograft tumors [2]; day 3)?
A: 236 mm^3

Q: What about the “Average Tumor Volume” value (LU99 xenograft tumors [2]; day 6) of the same molecule?
A: 359 mm^3

Q: What about the “Average Tumor Volume” value (LU99 xenograft tumors [2]; day 10) of the same molecule?
A: 558 mm^3

Q: What about the “Average Tumor Volume” value (LU99 xenograft tumors [2]; day 13) of the same molecule?
A: 737 mm^3

Q: What about the “Average Tumor Volume” value (LU99 xenograft tumors [2]; day 17) of the same molecule?
A: 1042 mm^3

Q: What about the “Average Tumor Volume” value (LU99 xenograft tumors [2]; day 20) of the same molecule?
A: 1237 mm^3

Q: And the “Average Tumor Volume” value (LU99 xenograft tumors [2]; day −1)?
A: 153 mm^3

Q: What about the “Composite Synergy Score” value (SW1573) of the same molecule?
A: 14

Q: And the “Composite Synergy Score” value (H1437)?
A: 13

Q: And the “Composite Synergy Score” value (HCC4006)?
A: 23
